Data from patent US7074804B2, “CCI-779 Isomer C” (Wyeth, priority 2003, dated 2006).
Values after ≈ are worked out from the molar mass of the structure shown. Where two headings read alike, the source gives them in different places.

Key:
Aspergillus fumigatus = experiment: Antifungal activity, microtiter broth dilution MIC; format: cell-based; details: Aspergillus fumigatus strain ATCC 26933, RPMI 1640, 35° C., 24–48 h
Method: (§1) Antifungal activity for CCI-779 Isomer C was established by evaluating it against several strains of fungi. Briefly the following procedure was used to evaluate such activity. A 96 well microtiter plate was filled (50 μL/well) with RPMI 1640. The compounds to be evaluated were placed in appropriate wells and serial diluted in successive wells to provide several dilutions. The concentration ranged from […]. An adjusted inoculum of fungi (50 μL) was added to each well and plates were incubated at 35° C. for 24–48 h.

Aspergillus niger = experiment: Antifungal activity, microtiter broth dilution MIC; format: cell-based; details: RPMI 1640, 35° C., 24–48 h
Method: as §1

Candida albicans = experiment: Antifungal activity, microtiter broth dilution MIC; format: cell-based; details: RPMI 1640, 35° C., 24–48 h
Method: as §1

Candida krussii = experiment: Antifungal activity, microtiter broth dilution MIC; format: cell-based; details: Candida krussii strain 94-2, RPMI 1640, 35° C., 24–48 h
Method: as §1

Candida lusitaniae = experiment: Antifungal activity, microtiter broth dilution MIC; format: cell-based; details: Candida lusitaniae strain 94-3, RPMI 1640, 35° C., 24–48 h
Method: as §1

Candida parapsilosis = experiment: Antifungal activity, microtiter broth dilution MIC; format: cell-based; details: RPMI 1640, 35° C., 24–48 h
Method: as §1

Candida pseudotropicalis = experiment: Antifungal activity, microtiter broth dilution MIC; format: cell-based; details: Candida pseudotropicalis strain ATCC 28838, RPMI 1640, 35° C., 24–48 h
Method: as §1

Candida rugosa = experiment: Antifungal activity, microtiter broth dilution MIC; format: cell-based; details: Candida rugosa strain 94-10, RPMI 1640, 35° C., 24–48 h
Method: as §1

Candida tropicalis = experiment: Antifungal activity, microtiter broth dilution MIC; format: cell-based; details: RPMI 1640, 35° C., 24–48 h
Method: as §1

[1] = Stability of CCI-779 Isomer C (solid form, aqueous suspension, formulation); format: physicochemical
[2] = test system: histologically diverse tumor cells; details: cited from earlier work
human tumor xenografts = details: nude mice, diverse histological types; cited from earlier work
[3] = Candida parapsilosis strain 94-9
[4] = Candida tropicalis strain 94-13
[5] = Candida albicans strain ATCC 90028
[6] = Candida parapsilosis strain 94-8
[7] = Candida parapsilosis strain ATCC 90018
[8] = Candida tropicalis strain 94-14

| Structure (SMILES) | MIC (Aspergillus niger; Aspergillus niger strain S399) [µg/mL] | MIC (Candida albicans; Candida albicans strain 1117) [µg/mL] | MIC (Candida parapsilosis; [3]) [µg/mL] | MIC (Candida tropicalis; [4]) | MIC (Aspergillus fumigatus) [µg/mL] | MIC (Aspergillus niger; Aspergillus niger strain S430) [µg/mL] | MIC (Candida albicans; Candida albicans strain 1063) | MIC (Candida albicans; [5]) [µg/mL] | MIC (Candida krussii) [µg/mL] | MIC (Candida lusitaniae) | MIC (Candida parapsilosis; [6]) | MIC (Candida parapsilosis; [7]) | MIC (Candida pseudotropicalis) | MIC (Candida rugosa) [µg/mL] | MIC (Candida tropicalis; [8]) | other results |
| --- | --- | --- | --- | --- | --- | --- | --- | --- | --- | --- | --- | --- | --- | --- | --- | --- |
| CO[C@H]1C[C@@H]2CC[C@@H](C)C(=O)C(O)(O2)C(=O)N2CCCC[C@H]2C(=O)O[C@H]([C@H](C)C[C@@H]2CC[C@@H](OC(=O)C(C)(CO)CO)[C@H](OC)C2)CC(=O)[C@H](C)/C=C(\C)[C@@H](O)[C@@H](OC)C(=O)[C@H](C)C[C@H](C)/C=C/C=C/C=C/1C (single isomer, unassigned) [CCI-779 Isomer C] | 32 (≈ 31.1 µM) | 4 (≈ 3.88 µM) | 4 (≈ 3.88 µM) | 4 µg/mL (≈ 3.88 µM) | – | – | – | – | – | – | – | – | – | – | – | MIC (Aspergillus fumigatus; ATCC26933, read-out: MIC): > 32 µg/mL; MIC (Aspergillus niger; Aspergillus niger strain S430, read-out: MIC): 32 µg/mL (≈ 31.1 µM); MIC (Candida albicans; ATCC90028, Candida albicans strain ATCC 90028, read-out: MIC): 4 µg/mL (≈ 3.88 µM); MIC (Candida albicans; Candida albicans strain 1063, read-out: MIC): 4 µg/mL (≈ 3.88 µM); MIC (Candida krussii; read-out: MIC): 4 µg/mL (≈ 3.88 µM); MIC (Candida lusitaniae; Clavispora lusitaniae, read-out: MIC): 8 µg/mL (≈ 7.76 µM); MIC (Candida parapsilosis; Lodderomyces parapsilosis, ATCC90018, Candida parapsilosis strain ATCC 90018, read-out: MIC): 4 µg/mL (≈ 3.88 µM); MIC (Candida parapsilosis; Lodderomyces parapsilosis, Candida parapsilosis strain 94-8, read-out: MIC): 4 µg/mL (≈ 3.88 µM); MIC (Candida pseudotropicalis; Kluyveromyces marxianus, ATCC28838, read-out: MIC): 4 µg/mL (≈ 3.88 µM); MIC (Candida rugosa; Diutina rugosa, read-out: MIC): 16 µg/mL (≈ 15.5 µM); MIC (Candida tropicalis; Candida tropicalis strain 94-14, read-out: MIC): 4 µg/mL (≈ 3.88 µM); stability with citric acid ([1]; citric acid at a concentration of less than 0.01% w/v in formulation): enhanced the stability; stability under storage conditions ([1]; formulated in solid form): stable under storage conditions for extended periods of time; stability ([1]; in an aqueous suspension): stable |
| CO[C@H]1C[C@@H]2CC[C@@H](C)[C@@](O)(O2)C(=O)C(=O)N2CCCC[C@H]2C(=O)O[C@H]([C@H](C)C[C@@H]2CC[C@@H](OC(=O)C(C)(CO)CO)[C@H](OC)C2)CC(=O)[C@H](C)/C=C(\C)[C@@H](O)[C@@H](OC)C(=O)[C@H](C)C[C@H](C)/C=C/C=C/C=C/1C (single isomer, unassigned) [CCI-779, Rapamycin 42-ester with 3-hydroxy-2-(hydroxymethyl)-2-methylpropionic acid] | – | – | – | – | – | – | – | – | – | – | – | – | – | – | – | growth of tumor cells in vitro ([2]; CNS cancer, leukemia (T-cell), breast, prostate, melanoma lines most sensitive): inhibit the growth; cell cycle effect ([2]; in vitro): arrested cells in the G1 phase of the cell cycle; activity against human tumor xenografts (human tumor xenografts): has activity |
| C[C@@H]1[C@H](O)[C@@H](C)/C=C/C=C/C=C/C=C/C=C/C=C/C=C/[C@H](O[C@@H]2O[C@H](C)[C@@H](O)[C@H](N)[C@@H]2O)C[C@@H]2O[C@](O)(C[C@@H](O)C[C@@H](O)[C@H](O)CC[C@@H](O)C[C@@H](O)CC(=O)O[C@H]1C)C[C@H](O)[C@H]2C(=O)O [Amphotericin B] | 0.50 (≈ 0.541 µM) | 0.12 (≈ 0.13 µM) | 0.12 (≈ 0.13 µM) | ≦0.06 μg/mL | 0.25 (≈ 0.271 µM) | 0.25 (≈ 0.271 µM) | ≦0.06 μg/mL | 0.12 (≈ 0.13 µM) | 0.12 (≈ 0.13 µM) | ≦0.06 μg/mL | ≦0.06 μg/mL | ≦0.06 μg/mL | ≦0.06 μg/mL | 0.25 (≈ 0.271 µM) | ≦0.06 μg/mL | – |
| C[C@@H]1[C@H](O)[C@@H](C)/C=C/C=C/CC/C=C/C=C/C=C/C=C/C(O[C@H]2O[C@H](C)[C@@H](O)[C@H](N)[C@@H]2O)CC2O[C@](O)(CC(O)C(O)CCC(O)CC(O)CC(O)CC(=O)O[C@H]1C)CC(O)C2C(=O)O (stereo partly drawn) [Nystatin] | 2 (≈ 2.16 µM) | 1 (≈ 1.08 µM) | 1 (≈ 1.08 µM) | 1 µg/mL (≈ 1.08 µM) | 2 (≈ 2.16 µM) | 1 (≈ 1.08 µM) | 1 µg/mL (≈ 1.08 µM) | 1 (≈ 1.08 µM) | 1 (≈ 1.08 µM) | 1 µg/mL (≈ 1.08 µM) | 2 µg/mL (≈ 2.16 µM) | 2 µg/mL (≈ 2.16 µM) | 1 µg/mL (≈ 1.08 µM) | 1 (≈ 1.08 µM) | 1 µg/mL (≈ 1.08 µM) | – |
